In patent publication US11237156B2, “Method and composition for detection of peptide cyclization using protein tags” (Roche Sequencing Solutions, Inc., priority 2016, dated 2022):
No end group written: not given here.

Columns and labels:
[1] = tested on: Cy5 anti-Myc mouse mAB; test: Cyclization tag assay, anti-Myc binding to peptide microarray; conditions: cyclization tag compared with fragmented control
Source text: (§1) With the matured linear protein tags at hand, the linear peptides were formed on a microarray where the tags were fragmented across the N- and C-terminus of the peptide such that upon cyclization, the complete protein tag is formed. The peptides were split around the low specificity position identified according to Examples 2 and 4 (position 6, for both tags), and that position was substituted with allyl-E (see FIG. 1). A flexible linker (Z) was inserted between the two peptide tag fragments to increase flexibility. Z was a 3:1 mixture of Gly:Ser. The linear peptide sequences are shown in Table 1 for the FLAG- and Myc-based sequenced in the row titled “Cyclization tag.” In addition to the cyclization tags, two controls were compared to each tag. The matured linear sequences identified according to Examples 2 and 4 (shown in Table 1 in the row titled “Linear control”) were formed on the microarray and tested as positive controls. […]
(§2) Cy3 and Cy5 fluorescence intensity of the arrays was measured with MS200 scanner (Roche NimbleGen) at resolution 2 um, wavelength 532 nm or 635 nm, gain 25% and laser intensity 100%. […]

[2] = biological target: streptavidin-Cy5 (Streptomyces avidinii, UniProt P22629); test: Streptavidin-Cy5 binding to cyclic/linear peptide microarray (fluorescence); conditions: for cyclic fluorescent intensity: cyclic subarray
streptavidin-Cy5, sequence (P22629 25-183): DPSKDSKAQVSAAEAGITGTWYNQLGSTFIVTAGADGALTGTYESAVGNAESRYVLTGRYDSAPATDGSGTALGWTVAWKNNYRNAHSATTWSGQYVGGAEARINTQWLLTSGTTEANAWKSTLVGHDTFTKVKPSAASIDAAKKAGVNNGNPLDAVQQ
Method: Slides were bound with […] streptavidin-Cy5 in 30 mL binding buffer for 30 minutes at room temperature. Binding buffer contained 1% alkali soluble casein and 0.05% tween-20 in 1×TBS, pH 7.4. After 30 minutes, slides were washed twice in 1×TBS buffer for 1 minute, water for 30 seconds, and spun to dryness.
Cy5 fluorescence intensity of the arrays was measured with MS200 scanner (Roche NimbleGen) at resolution 2 um, wavelength 635 nm, gain 25% and laser intensity 100%. Cy5 signal intensities were extracted using Image Extraction Software (Roche NimbleGen). Data pre-processing, normalization and statistical tests were done in R. Data visualization and analysis were performed with Spotfire 6.5.0 (Tibco, Boston, Mass.) software platform.

[3] = tested on: anti-FLAG antibody; test: FLAG-based sequence maturation binding assay (single substitutions, signal intensity); conditions: for signal intensity after single mutation of the precursor sequence: linear tag on microarray, each position substituted with remaining 19 natural amino acids
Method: A fragmented peptide tag was designed to be specific for the anti-FLAG antibody near the N-terminus and C-terminus of the peptide tag, while having low specificity in the middle of the sequence to assist with attachment to a microarray surface through an amino acid side chain. […] A maturation of the FLAG (GDYKDDDDKGG (SEQ ID NO: 232)) tag was performed with the tag in linear form. Each amino acid in the 11 mer peptide was individually substituted with each of the remaining 19 amino acids. As further described below, the process was repeated with modified sequences until the desired specificity at each position was achieved.
Referring to FIG. 25, the initial FLAG sequence (GDYKDDDDKGG (SEQ ID NO: 232)) was modified at each of positions 1-11 individually with each of the remaining 19 natural amino acids, and signal intensity (y-axis) was measured.

[4] = tested on: anti-Myc antibody; test: Myc sequence maturation binding assay (single substitutions, signal intensity)
Source text: A fragmented protein tag was designed to be specific for the anti-Myc antibody near the N-terminus and C-terminus of the peptide tag, while having low specificity in the middle of the sequence to assist with attachment to a microarray surface through an amino acid side chain. It is to be understood that in some embodiments the amino acid attached to the microarray surface can be near either end of the peptide tag and not necessary closer to the middle of the peptide tag. […] A maturation of the Myc (EQKLISEEDLG (SEQ ID NO: 233)) tag was performed with the tag in the linear form. Each amino acid in the 11 mer peptide was substituted with each of the remaining 19 amino acids. As further described below, the process was repeated until the desired specificity at each position was achieved.
Referring to FIG. 29, the initial Myc sequence (EQKLISEEDLG (SEQ ID NO: 233)) was modified at positions 1-11 and signal intensity (y-axis) was measured.

[5] = tested on: Cy3 anti-FLAG mouse mAB; test: Cyclization tag assay, anti-FLAG binding to peptide microarray; conditions: cyclization tag compared with fragmented control
Source text: as §1, §2

[6] = extension of HPQ-specific design, all J combinations of JXXHPQXXJU
[7] = single substitution scan of the matured tag

EEDWGZZZZEQKLI{allyl-E} (EEDWGXXXXEQKLIE; not fully specified (residue 15); printed as EEDWGZZZZEQKLI{allyl-E}; also: X6-X9: Gly or Ser mixture) [Myc cyclization tag, fragmented Myc-based tag on microarray, Z = 3:1 mixture of Gly:Ser, cyclized via allyl-E]
median fluorescence [1]: higher than that of the fragmented control peptides

LYDHPQNGGU (cyclo(LYDHPQNGGE); also: Glu10 surface-linked) [cylic LYDHPQNGGU]
cyclic fluorescent intensity [2, 6]: highest cyclic intensity

WDYKDDDDKGG [G1W-FLAG tag]
signal intensity after single mutation of the precursor sequence [3]: strongest increase in signal intensity

QNDHPQNGGU (cyclo(QNDHPQNGGE); also: Glu10 surface-linked) [cyclic QNDHPQNGGU]
log fold change (log FC) between cyclic and linear fluorescent intensity ([2]; extension of HPQ-specific design, JXXHPQXXJU): high log FC
cyclic fluorescent intensity [2, 6]: high cyclic intensity

EQKLISEEDWG [L10W-Myc tag]
signal intensity after single mutation of the precursor sequence ([4]; linear tag on microarray, positions 1-11 modified): strongest increase in signal intensity
specificity by sequence position for the anti-Myc antibody [4, 7]: strong specificity on the N-terminus (position 1-5) and moderate specificity on the C-terminus

NQpWU [cylic NQpWU]
cyclic fluorescent intensity ([2]; peptide library of format XXXXU): highest cyclic fluorescent intensity

WDYKDFDQKGG [G1W, D6F, D8Q-FLAG tag, matured FLAG tag, position 8 mutated to glutamine]
specificity by sequence position for the anti-FLAG antibody [3, 7]: specificity for the anti-FLAG antibody on the N-terminus (position 1-4) and the C-terminus (position 7-8)

DQKGGZZZZWDYKD{allyl-E} (DQKGGXXXXWDYKDE; not fully specified (residue 15); printed as DQKGGZZZZWDYKD{allyl-E}; also: X6-X9: Gly or Ser mixture) [FLAG cyclization tag, fragmented FLAG-based tag on microarray, Z = 3:1 mixture of Gly:Ser, cyclized via allyl-E]
median fluorescence [5]: higher than that of the fragmented control peptides

WDYKDFDDKGG [G1W, D6F-FLAG tag, G1W-FLAG tag with position 6 mutated to phenylalanine]
signal intensity after single mutation of the precursor sequence [3]: strongest increase in signal intensity
